pEC50: −log10 of the molar value.
The compounds below were run on HCV replicon (assay: HCV replicon replication assay (NPT ELISA) in Huh-7 replicon-containing cells). Settings: Hepatitis C virus, 72 h; HCV replicon in Huh-7 cells, three days incubation; read-out: EC50.
Type: cell-based
Method: Compounds claimed herein are tested for the ability to inhibit viral replication of the Hepatitis C replicon in cultured cells in which the HCV replicon construct has been incorporated. The HCV replicon system was described by Bartenschlager, et. al (Science, 285, pp. 110-113 (1999)). The replicon system is predictive of in vivo anti-HCV activity; compounds that are active in humans uniformly evidence activity in the replicon assay.
In this assay HCV replicon containing cells are treated with different concentrations of the test compound to ascertain the ability of the test compound to suppress replication of the HCV replicon. As a positive control, HCV replicon-containing cells are treated with different concentrations of interferon alpha, a known inhibitor of HCV replication. The replicon assay system includes Neomycin Phosphotransferase (NPT) as a component of the replicon itself in order to detect the transcription of replicon gene products in the host cell. Cells in which the HCV replicon is actively replicating have high levels of NPT; the level of NPT is proportional to HCV replication. […] The NPT level of each sample is measured using a captured ELISA.
A protocol for testing compounds for the ability to inhibit viral replication of the Hepatitis C replicon cultured cells in which the replicon construct has been incorporated, follows.
The HCV replicon contains, 5′-3′, the HCV-IRES, the neomycin phosphotransferase (neo) gene, the IRES of encephalomyocarditis virus, which directs translation of HCV sequences NS3 to NS5B, and the 3′-NTR. The sequence of the HCV replicon has been deposited in GenBank (Accession no. AJ242652).
The replicon is transfected into Huh-7 cells using standard methods such as electroporation.
The equipment and materials include, but are not limited to, Huh-7 HCV replicon-containing cells, maintenance media (DMEM (Dulbecco's modified Eagle media) supplemented with 10% FBS, L-glutamine, non-essential amino acids, penicillin (100 units/ml), streptomycin (100 micrograms/ml), and 500 micrograms/ml of Geneticin (G418), screening media (DMEM supplemented with 10% FBS, L-glutamine, non-essential amino acids, penicillin (100 units/ml) and streptomycin (100 micrograms/ml)), 96 well tissue culture plates (flat bottom), 96 well plates (U bottom for drug dilution), Interferon alpha for positive control, fixation reagent (such as methanol: acetone), primary antibody (rabbit anti-NPTII), secondary antibody: Eu-N1 l, and enhancement solution.
HCV replicon-containing cells support high levels of viral RNA replicon replication when their density is suitable. Over-confluency causes decreased viral RNA replication. Therefore, cells must be kept growing in log phase in the presence of 500 micrograms/ml of G418. Generally, cells should be passed twice a week at 1: 4-6 dilution. Cell maintenance is conducted as follows:
HCV replicon-containing cells are examined under a microscope to ensure that cells growing well. Cells are rinsed once with PBS and 2 ml trypsin is added. The cell/trypsin mixture is incubated at 37° C. in a CO2 incubator for 3-5 minutes. After incubation 10 ml of complete media is added to stop the trypsinization reaction. Cells are blown gently, put into a 15 ml tube, and spun at 1200 rpm for 4 minutes. The trypsin/medium solution is removed. Medium (5 ml) is added and the cells are mixed carefully. The cells are counted.
The cells are then seeded onto 96-well plates at a density of 6000-7500 cells/100 microliters/well (6-7.5×10^5 cells/10 ml/plate). The plates are then incubated at 37° C. in a 5% CO2 incubator.
Cells are examined under a microscope approximated 24 hours after seeding and prior to adding drugs. If counting and dilution were performed correctly, cells are 60-70% confluent and nearly all cells should attach and spread evenly in the well.
HCV replicon-containing cells are rinsed with once PBS once; 2 mls of trypsin are then added. Cells are incubated at 37° C. in a 5% CO2 incubator for 3-5 minutes. […]

Row | Structure (SMILES) | pEC50
1 | C=C[C@@H]1C[C@]1(NC(=O)[C@@H]1C[C@@H](Oc2cc(-c3ccccc3)nc3cc(OC)ccc23)CN1C(=O)[C@@H](CC(=O)N1CCCCC1)C(C)(C)C)C(=O)NS(=O)(=O)C1(CC)CC1 [Compound 145, (2S,4R)-1-((S)-2-tert-butyl-4-oxo-4-(piperidin-1-yl)butanoyl)-N-((1R,2S)-1-(1-ethylcyclopropyl-sulfonylcarbamoyl)-2-vinylcyclopropyl)-4-(7-methoxy-2-phenylquinolin-4-yloxy)pyrrolidine-2-carboxamide] | > 6.00
2 | C=C[C@@H]1C[C@]1(NC(=O)[C@@H]1C[C@@H](Oc2cc(-c3ccccn3)nc3c(Cl)c(OC)ccc23)CN1C(=O)[C@@H](CC(=O)N1CCOCC1)C(C)(C)C)C(=O)NS(=O)(=O)C1CC1 [Compound 180, (2S,4R)-1-((S)-2-tert-butyl-4-morpholino-4-oxobutanoyl)-4-(8-chloro-7-methoxy-2-(pyridin-2-yl)quinolin-4-yloxy)-N-((1R,2S)-1-(cyclopropyl-sulfonylcarbamoyl)-2-vinyl-cyclopropyl)pyr-rolidine-2-carboxamide] | > 6.00
3 | C=CC1CC1(NC(=O)[C@@H]1C[C@@H](Oc2cc(-c3ccccc3)nc3cc(OC)ccc23)CN1C(=O)C[C@H](C(=O)N1C(=O)OC[C@@H]1Cc1ccccc1)C(C)(C)C)C(=O)NS(=O)(=O)C1CC1 (stereo partly drawn) [Compound 47, (2S,4R)-1-((S)-3-((S)-4-benzyl-2-oxooxazolidine-3-carbonyl)-4,4-dimethyl-pentanoyl)-N-(1-(cyclopropyl-sulfonylcarbamoyl)-2-vinylcyclopropyl)-4-(7-methoxy-2-phenylquinolin-4-yloxy)pyrrolidine-2-carboxamide] | 5.00 to 6.00
4 | C=C[C@@H]1C[C@]1(NC(=O)[C@@H]1C[C@@H](Oc2cc(-c3ccccn3)nc3c(C)c(OC)ccc23)CN1C(=O)[C@@H](CC(=O)N1CCCC(F)(F)C1)C(C)(C)C)C(=O)NS(=O)(=O)C1CC1 [Compound 246, (2S,4R)-1-((S)-2-tert-butyl-4-(3,3-difluoropiperidin-1-yl)-4-oxobutanoyl)-N-((2S)-1-(cyclopropyl-sulfonylcarbamoyl)-2-vinylcyclopropyl)-4-(7-methoxy-8-methyl-2-(pyridin-2-yl)quinolin-4-yloxy)pyrrolidine-2-carboxamide] | > 6.00
5 | C=C[C@@H]1C[C@]1(NC(=O)[C@@H]1C[C@@H](NC(=O)n2c3ccccc3c3ccccc32)CN1C(=O)[C@@H](CC(=O)N1CCCC(F)(F)C1)C(C)(C)C)C(=O)NS(=O)(=O)C1CC1 [Compound 178, N-((3R,5S)-1-((S)-2-tert-butyl-4-(3,3-difluoropiperidin-1-yl)-4-oxobutanoyl)-5-((1R,2S)-1-(cyclo-propylsulfonyl-carbamoyl)-2-vinylcyclopropyl-carbamoyl)pyrrolidin-3-yl)-9H-carbazole-9-carboxamide] | > 6.00
6 | C=C[C@@H]1C[C@]1(NC(=O)[C@@H]1C[C@@H](NC(=O)n2c3ccccc3c3ccccc32)CN1C(=O)[C@@H](CC(=O)N1CC2CC3CC(C2)CC1C3)C(C)(C)C)C(=O)NS(=O)(=O)C1CC1 [Compound 197] | > 6.00
7 | CCC[C@@H](NC(=O)[C@@H]1C[C@@H](Oc2cc(-c3ccccc3)nc3cc(OC)ccc23)CN1C(=O)[C@@H](CC(=O)N1CCCCC1)C(C)(C)C)C(=O)NS(=O)(=O)C1CC1 [Compound 117, (2S,4R)-1-((S)-2-tert-butyl-4-oxo-4-(piperidin-1-yl)butanoyl)-N-((R)-1-(cyclopropanesulfon-amido)-1-oxopentan-2-yl)-4-(7-methoxy-2-phenylquinolin-4-yloxy)pyrrolidine-2-carboxamide] | 5.00 to 6.00
8 | C=C[C@@H]1C[C@]1(NC(=O)[C@@H]1C[C@@H](NC(=O)n2c3ccccc3c3ccccc32)CN1C(=O)[C@@H](CC(=O)N1CCCCC1)C(C)(C)C)C(=O)NS(=O)(=O)C1CC1 [Compound 177, N-((3R,5S)-1-((S)-2-tert-butyl-4-oxo-4-(piperidin-1-yl)butanoyl)-5-((1R,2S)-1-(cyclopropyl-sulfonylcarbamoyl)-2-vinylcyclopropyl-carbamoyl)pyr-rolidin-3-yl)-9H-carbazole-9-carboxamide] | > 6.00
9 | C=C[C@@H]1C[C@]1(NC(=O)[C@@H]1C[C@@H](NC(=O)c2cc(-c3ccccc3)nc3ccccc23)CN1C(=O)[C@@H](CC(=O)N1CCC(F)(F)C1)C(C)(C)C)C(=O)NS(=O)(=O)C1CC1 [Compound 201, N-((3R,5S)-1-((S)-2-tert-butyl-4-(3,3-difluoropyrrolidin-1-yl)-4-oxobutanoyl)-5-((1R,2S)-1-(cyclopropylsulfonyl-carbamoyl)-2-vinylcyclopropyl-carbamoyl)pyrrolidin-3-yl)-2-phenylquinoline-4-carboxamide] | > 6.00
10 | C=C[C@@H]1CC1(NC(=O)[C@@H]1C[C@@H](Oc2nc(-c3ccccn3)cc3c(Cl)c(OC)ccc23)CN1C(=O)[C@@H](CC(=O)N1CCC(C(F)(F)F)CC1)C(C)(C)C)C(=O)NS(=O)(=O)C1CC1 (mixture of isomers) [Compound 245, (2S,4R)-1-((S)-2-tert-butyl-4-oxo-4-(4-(trifluoro-methyl)piperidin-1-yl)butanoyl)-4-(5-chloro-6-methoxy-3-(pyridin-2-yl)isoquinolin-1-yloxy)-N-((S)-1-(cyclopropyl-sulfonylcarbamoyl)-2-vinylcyclo-propyl)pyrrolidine-2-carboxamide] | > 6.00
11 | C=C[C@@H]1C[C@]1(NC(=O)[C@@H]1C[C@@H](Oc2cc(-c3ccccc3)nc3cc(OC)ccc23)CN1C(=O)[C@@H](CC(=O)N1CCC1c1ccccc1)C(C)(C)C)C(=O)NS(=O)(=O)C1CC1 (stereo partly drawn) [Compound 227, (2S,4R)-1-((2S)-2-tert-butyl-4-oxo-4-(2-phenylazetidin-1-yl)butanoyl)-N-((1R)-1-(cyclopropyl-sulfonylcarbamoyl)-2-vinylcyclopropyl)-4-(7-methoxy-2-phenylquinolin-4-yloxy)pyrrolidine-2-carboxamide] | > 6.00
12 | C=C[C@@H]1C[C@]1(NC(=O)[C@@H]1C[C@@H](Oc2cc(-c3ccccn3)nc3c(Cl)c(OC)ccc23)CN1C(=O)[C@@H](CC(=O)N1CCCC(F)(F)C1)C(C)(C)C)C(=O)NS(=O)(=O)C1CC1 [Compound 181, (2S,4R)-1-((S)-2-tert-butyl-4-(3,3-difluoropiperidin-1-yl)-4-oxobutanoyl)-4-(8-chloro-7-methoxy-2-(pyridin-2-yl)quinolin-4-yloxy)-N-((1R,2S)-1-(cyclopropyl-sulfonylcarbamoyl)-2-vinyl-cyclopropyl)pyr-rolidine-2-carboxamide] | > 6.00
13 | C=C[C@@H]1C[C@]1(NC(=O)[C@@H]1C[C@@H](Oc2cc(-c3ccccc3)nc3cc(OC)ccc23)CN1C(=O)[C@@H](CC(=O)N1CCCCC1)C(C)(C)C)C(=O)NS(=O)(=O)c1cn(C)cn1 [Compound 73, (2S,4R)-1-((S)-2-tert-butyl-4-oxo-4-(piperidin-1-yl)butanoyl)-4-(7-methoxy-2-phenylquinolin-4-yloxy)-N-((1R,2S)-1-(1-methyl-1H-imidazol-4-ylsulfonylcarbamoyl)-2-vinylcycloprop-yl)pyrrolidine-2-carboxamide] | 5.00 to 6.00
